Assay: In vitro dissolution study of acyclovir solubilized using various solubilizers
Type: physicochemical
Description: A solubilizing agent was melted in a container and a drug was added and mixed intimately and cooled to room temperature. The mass was sifted through an appropriate sieve to get a uniform blend. A blend of the drug was prepared using polyethylene glycol 6000, Lutrol F127 and Gelucire (50/13). Solid dispersion of the drug with various solubilizing agents like polyethylene glycol 6000, Lutrol F127 and Gelucire 50/13 were studied for their solubility in 900 ml distilled water. […] Also with Lutrol in ratio (1:0.5 to 1:2) a three-fold increase in instantaneous solubility was observed. These samples were taken for dissolution study and the result obtained are provided in Table 3 hereunder and graphically depicted in Figure-I: […]

% drug dissolved (0 min): 0% | % drug dissolved (5 min): 16.03% | % drug dissolved (10 min): 19.58% | % drug dissolved (15 min): 24.09% | % drug dissolved (20 min): 29.34% | % drug dissolved (30 min): 33.89% | % drug dissolved (45 min): 47.11% | % drug dissolved (60 min): 53.78% | % drug dissolved (90 min): 68.87% | % drug dissolved (120 min): 75.40%
SMILES: Nc1nc2c(ncn2COCCO)c(=O)[nH]1 [Acyclovir as is, Acyclovir]

From patent US20140314847A1, “CONTROLLED RELEASE PHARMACEUTICAL COMPOSITIONS WITH IMPROVED BIOAVAILABILILTY” (priority 2004, published 2014)
